This experiment concerns the target Small ubiquitin-related modifier 2 (Homo sapiens) (UniProt P61956). Nature of the experiment: inhibitors of SUMO2 protein-protein interaction, dose response, selectivity assay for SUMO1 interaction inhibitor project, biochemical, FRET, human SUMO2, uHTS hits (AID 624384).

Activity calls are given as the source filed them. The rule behind the calls is not given here.

Small ubiquitin-related modifier 2 (Homo sapiens), sequence (P61956 whole entry, looked up): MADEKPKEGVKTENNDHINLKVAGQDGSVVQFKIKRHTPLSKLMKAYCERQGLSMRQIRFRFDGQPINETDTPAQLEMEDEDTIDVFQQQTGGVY

`C[c-]1[c-](C)[c-](C)[c-](C)[c-]1C.[Fe].c1cc2nccc(N3CCCC3)[c-]2c1` (stereo unspecified): the IC50 is > 66 µM (inactive).

For orientation: IC50 means the concentration that gives 50% inhibition.

The values above are taken from PubChem BioAssay AID624384 (Sanford-Burnham Center for Chemical Genomics, 2012).
